Test: Benzotriazole solubility in adhesive GELVA 263 (observed crystallization after solvent evaporation)
Conditions: in GELVA 263 polyacrylate adhesive; approximate maximum concentration, weight of total benzotriazole added to GELVA 263 as is
Procedure: To measure this solubility a number of structurally different benzotriazoles are added to a typical adhesive GELVA® 263 (Solutia) which is a 44.5% solution of a polyacrylate in a mixture of ethyl acetate and hexane. The polyacrylate is a copolymer of methyl methacrylate, 2-ethylhexyl methacrylate and glycidyl methacrylate.
The test benzotriazole is dissolved in 5 mL of ethyl acetate, toluene or a mixture of ethyl acetate and toluene. To the solution is added 5 g of GELVA® 263 and 2-3 mL of the resulting solution is placed into individual watch glasses. Solubility is then evaluated based upon observed crystallization once the solvent has evaporated. Observations start after several hours and then continue over a period of several weeks.
Solubilities are reported in weight of total benzotriazole added to GELVA® 263 as is.
Following the procedure of Example 3, the solubility in GELVA® 263 (Solutia) of various mixtures of benzotriazoles is determined. […]
The test compound is dissolved in 5 mL of ethyl acetate, toluene or a mixture of ethyl acetate and toluene. […] Solubility is then evaluated based upon observed crystallization once the solvent has evaporated. […]

| Solubility without Crystallization (%) | SMILES |
| --- | --- |
| 11.3% | COC(=O)CCc1cc(-n2nc3ccc(S(=O)(=O)c4ccccc4)cc3n2)c(O)c(C(C)(C)C)c1 [K, methyl 3-(5-phenylsulfonyl-2H-benzotriazol-2-yl)-5-tert-butyl-4-hydroxyhydrocinnamate] |
| 8.0% | COC(=O)C[S+]([O-])c1ccc2nn(-c3cc(C(C)(C)C)cc(C(C)(C)C)c3O)nc2c1 (centres unmarked) [J, 5-methoxycarbonylmethylsulfinyl-2-(2-hydroxy-3,5-di-tert-butylphenyl)-2H-benzotriazole] |

Source: EP1175467B1, “STABILIZED ADHESIVE COMPOSITIONS CONTAINING HIGHLY SOLUBLE, RED-SHIFTED, PHOTOSTABLE BENZOTRIAZOLE UV ABSORBERS AND LAMINATED ARTICLES DERIVED THEREFROM” (Ciba Specialty Chemicals Holding Inc., priority 1999, dated 2000)
